Source: patent US11129829B2, “Methods for modulating splicing” (Skyhawk Therapeutics, Inc., priority 2019, dated 2021)
Read-outs that look alike come from different tables or passages of the source.

What was measured:
Format in all cases: cell-based
A-673 = A-673 cell viability
Target 2 = assay: qPCR assay, Target 2 splicing potency (poison exon 12c inclusion); details: for IC50: WT transcript; for EC50: poison exon E12c inclusion
Experimental: (§1) A-673 or SK-N-MC cells were treated with different concentrations of SMSM compounds or DMSO for 24 hours. After the first 16 hours, cells were treated with 100 ug/ml of cycloheximide (CHX) for 8 hours to inhibit protein translation and nonsense-mediated decay (NMD). Cells were lysed with RNA lysis buffer and RNAs were purified using standard methods. After cDNA synthesis, samples were analyzed by qPCR using target transcript specific Taqman primers/probes (FIGS. 7, 19, 20, and 29). Absolute copy numbers were determined using standard curves from G-block DNA fragments (FIGS. 8, 9, and 21). Relative gene expression was determined by comparing the gene expression in the presence of an SMSM and DMSO (FIGS. 10-16 and 22-28).

Target 1 = assay: qPCR assay, Target 1 splicing potency (poison exons 7b and 7c inclusion); details: for IC50: WT transcript
Experimental: as §1

[1] = poison exon E7b inclusion, read-out: Target 1 Splicing Potency E7b EC50
[2] = poison exon E7c inclusion, read-out: Target 1 Splicing Potency E7c EC50

Compound | IC50 (A-673; Cell viability) [nM] | IC50 (Target 2) [µM] | EC50 (Target 2) [µM] | IC50 (Target 1) [µM] | EC50 (Target 1; [1]) [µM] | EC50 (Target 1; [2]) [µM] | IC50 (A-673; Homo sapiens, A673, Cell viability) [nM]
2-(6-(((1R,3S,5S)-1,5-dimethyl-8-azabicyclo[3.2.1]octan-3-yl)(methyl)amino)pyridazin-3-yl)-5-(l-(methyl-d3)-1H-pyrazol-4-yl)phenol [compound 171] | 10 to 100 |  |  |  |  |  | 
6-(6-(((1R,3S,5S)-8-azabicyclo[3.2.1]octan-3-yl)(methyl)amino)pyridazin-3-yl)quinolin-7-ol [compound 162] | 251 to 500 |  |  |  |  |  | 
CN(c1ccc(-c2cc(F)c(-c3cn[nH]c3)cc2O)nn1)[C@@H]1C[C@H]2CCC[C@@H](C1)N2 [SMSM 70807, 4-fluoro-2-(6-{methyl[(1R,3S,5S)-9-azabicyclo[3.3.1]nonan-3-yl]amino}pyridazin-3-yl)-5-(1H-pyrazol-4-yl)phenol] |  | 0.0508 | 0.54 | 0.046 | 0.168 | 0.162 | 
CNC(=O)/C=C/c1cc(O)c(-c2ccc(N(C)[C@@H]3C[C@H]4CCC[C@@H](C3)N4)nn2)cc1F [SMSM 70808, (2E)-3-{4-[6-({9-azabicyclo[3.3.1]nonan-3-yl}(methyl)amino)pyridazin-3-yl]-2-fluoro-5-hydroxyphenyl}-N-methylprop-2-enamide] |  | 0.149 | 0.606 | 0.104 | 0.0475 | 0.348 | 
CN(c1ccc(-c2ccc(-c3cnn(CF)c3)cc2O)nn1)[C@H]1C[C@]2(C)CC[C@](C)(C1)N2 [SMSM 70810, 2-(6-{[(1R,3S,5S)-1,5-dimethyl-8-azabicyclo[3.2.1]octan-3-yl](methyl)amino}pyridazin-3-yl)-5-[1-(fluoromethyl)-1H-pyrazol-4-yl]phenol] |  | 0.22 | 0.418 | 0.236 | 0.18 | 1.05 | 
COc1cc(-c2ccc(-c3ccc(N(C)[C@H]4C[C@]5(C)CC[C@](C)(C4)N5)nn3)c(O)c2)cnn1 [SMSM 70812, 2-(6-{[(1R,3S,5S)-1,5-dimethyl-8-azabicyclo[3.2.1]octan-3-yl](methyl)amino}pyridazin-3-yl)-5-(6-methoxypyridazin-4-yl)phenol] |  | 0.169 | 0.355 | 0.178 | 0.174 | 0.754 | 
CNC(=O)/C=C/c1cc(O)c(-c2ccc(N(C)[C@H]3C[C@]4(C)CCC[C@](C)(C3)N4)nn2)cc1F [SMSM 70813, (2E)-3-[2-fluoro-5-hydroxy-4-(6-{methyl[(1R,3S,5S)-1,5-dimethyl-9-azabicyclo[3.3.1]nonan-3-yl]amino}pyridazin-3-yl)phenyl]-N-methylprop-2-enamide] |  | 0.162 | 0.126 | 0.0991 | 0.041 | 0.31 | 
CN(c1ccc(-c2ccc(-c3ccn(C)c(=O)c3)cc2O)nn1)[C@H]1C[C@]2(C)CCC[C@](C)(C1)N2 [SMSM 70814, 4-[3-hydroxy-4-(6-{methyl[(1R,3S,5S)-1,5-dimethyl-9-azabicyclo[3.3.1]nonan-3-yl]amino}pyridazin-3-yl)phenyl]-1-methyl-1,2-dihydropyridin-2-one] |  | 0.11 |  | 0.102 | 0.0892 | 0.538 | 
CN(c1ccc(-c2cc(F)c(-c3ccn(C)c(=O)c3)cc2O)nn1)[C@H]1C[C@]2(C)CCC[C@](C)(C1)N2 [SMSM 70815, 4-[2-fluoro-5-hydroxy-4-(6-{methyl[(1R,3S,5S)-1,5-dimethyl-9-azabicyclo[3.3.1]nonan-3-yl]amino}pyridazin-3-yl)phenyl]-1-methyl-1,2-dihydropyridin-2-one] |  | 0.116 | 0.238 | 0.105 | 0.0598 | 0.423 | 
CN(c1ccc(-c2cc(F)c(-c3cc(=O)n(C)cn3)cc2O)nn1)[C@H]1C[C@]2(C)CC[C@](C)(C1)N2 [SMSM 70816, 6-(4-(6-(((1R,3S,5S)-1,5-dimethyl-8-azabicyclo[3.2.1]octan-3-yl)(methyl)amino)pyridazin-3-yl)-2-fluoro-5-hydroxyphenyl)-3-methylpyrimidin-4(3H)-one] |  | 0.225 | 0.634 | 0.215 | 0.171 | 0.737 | 
COc1cc(-c2ccc(-c3ccc(N(C)[C@H]4C[C@]5(C)CC[C@](C)(C4)N5)nn3)c(O)c2)ncn1 [SMSM 70817, 2-(6-{[(1R,3S,5S)-1,5-dimethyl-8-azabicyclo[3.2.1]octan-3-yl](methyl)amino}pyridazin-3-yl)-5-(6-methoxypyrimidin-4-yl)phenol] |  | 0.93 | 1.16 | 0.707 | 0.941 | 2.91 | 
CN(c1ccc(-c2cc(F)c(-c3ccn(CF)c(=O)c3)cc2O)nn1)[C@H]1C[C@]2(C)CCC[C@](C)(C1)N2 [SMSM 70819, 4-[2-fluoro-5-hydroxy-4-(6-{methyl[(1R,3S,5S)-1,5-dimethyl-9-azabicyclo[3.3.1]nonan-3-yl]amino}pyridazin-3-yl)phenyl]-1-(fluoromethyl)-1,2-dihydropyridin-2-one] |  | 0.0947 | 0.0929 | 0.0939 | 0.088 | 0.293 | 
COc1cc(-c2ccc(-c3ccc(N(C)[C@H]4C[C@]5(C)CCC[C@](C)(C4)N5)nn3)c(O)c2)cnn1 [SMSM 70820, 5-(6-methoxypyridazin-4-yl)-2-(6-{methyl[(1R,3S,5S)-1,5-dimethyl-9-azabicyclo[3.3.1]nonan-3-yl]amino}pyridazin-3-yl)phenol] |  | 0.166 | 0.53 | 0.142 | 0.111 | 0.627 | 
CNC(=O)/C=C/c1cc(O)c(-c2ccc(N(C3CC3)[C@H]3C[C@]4(C)CC[C@](C)(C3)N4)nn2)cc1F [SMSM 70823, (E)-3-(4-(6-(cyclopropyl((1R,3S,5S)-1,5-dimethyl-8-azabicyclo[3.2.1]octan-3-yl)amino)pyridazin-3-yl)-2-fluoro-5-hydroxyphenyl)-N-methylacrylamide] |  | 0.463 | 0.344 | 0.328 | 0.17 | 0.898 | 
CNC(=O)c1ccc2cc(-c3ccc(N(C)[C@H]4C[C@]5(C)CCC[C@](C)(C4)N5)nn3)c(O)cc2n1 [SMSM 70824, 7-hydroxy-N-methyl-6-(6-{methyl[(1R,3S,5S)-1,5-dimethyl-9-azabicyclo[3.3.1]nonan-3-yl]amino}pyridazin-3-yl)quinoline-2-carboxamide] |  | 0.054 | 0.0461 | 0.0276 | 0.0093 | 0.0602 | 
CNC(=O)/C=C/c1cc(O)c(-c2ccc(N(C3CC3)[C@H]3C[C@]4(C)CCC[C@](C)(C3)N4)nn2)cc1F [SMSM 70826, (2E)-3-[4-(6-{cyclopropyl[(1R,3S,5S)-1,5-dimethyl-9-azabicyclo[3.3.1]nonan-3-yl]amino}pyridazin-3-yl)-2-fluoro-5-hydroxyphenyl]-N-methylprop-2-enamide] |  | 0.337 | 0.304 | 0.177 | 0.257 | 0.887 | 
Oc1cc(-c2cn[nH]c2)c(F)cc1-c1ccc(O[C@@H]2C[C@H]3CCC[C@@H](C2)N3)nn1 [compound 278, 2-(6-(((1R,3S,5S)-9-azabicyclo[3.3.1]nonan-3-yl)oxy)pyridazin-3-yl)-4-fluoro-5-(1H-pyrazol-4-yl)phenol] |  |  |  |  |  |  | 10 to 100
